Test results from US7998950B2, “Antiviral compounds” (Gilead Sciences, Inc., priority 2008, dated 2011).
Read-outs that look alike come from different tables or passages of the source.

Test system: HIV-IIIb
Assay: Antiviral assay in MT-2 cells infected with HIV-IIIb
Assay type: cell-based
Conditions: Human immunodeficiency virus 1, IIIB, MT2, 120 h
[1] = MT-2 cells infected with HIV-IIIb, m.o.i. 0.01, 10% FBS, 5 days at 37° C., CellTiter-Glo chemiluminescence, read-out: EC50 in MT-2 cells

| Structure (SMILES) | EC50 [1] | EC50 (read-out: EC50 in MT-2 cells (nM)) |
| --- | --- | --- |
| CNC(=O)c1c(O)c2ncc(Cc3ccc(F)cc3)c3c2n(c1=O)C[C@@H](CN(C)C(C)(C)C)O3 [Example 201] | 2.8 nM |  |
| CNC(=O)c1c(O)c2ncc(Cc3ccc(F)cc3)c3c2n(c1=O)C[C@@H](CN(C)CCO)O3 [Example 202] | 12 nM |  |
| CNC(=O)c1c(O)c2ncc(Cc3ccc(F)cc3)c3c2n(c1=O)C[C@@H](Cn1ccnc1C)O3 [Example 203] | 12 nM |  |
| CNC(=O)c1c(O)c2ncc(Cc3ccc(F)cc3)c3c2n(c1=O)C[C@@H](Cn1ccnc1C(=O)NC)O3 [Example 205] | 1 nM |  |
| CNC(=O)c1c(O)c2ncc(Cc3ccc(F)cc3)c3c2n(c1=O)C[C@@H](CN(C)S(C)(=O)=O)O3 [Example 206] | 0.1 nM |  |
| CNC(=O)c1c(O)c2ncc(Cc3ccc(F)cc3)c3c2n(c1=O)C[C@@H](CN(C)C(=O)c1nnc(C)o1)O3 [Example 207] | 4.6 nM |  |
| CNC(=O)c1c(O)c2ncc(Cc3ccc(F)cc3)c3c2n(c1=O)C[C@H](CN(C)S(C)(=O)=O)O3 [Example 208] | 0.6 nM |  |
| CNC(=O)c1c(O)c2ncc(Cc3ccc(F)cc3)c3c2n(c1=O)C[C@H](CN(C)C(C)=O)O3 [Example 209] | 5.1 nM |  |
| CNC(=O)c1c(O)c2ncc(Cc3ccc(F)cc3)c3c2n(c1=O)C[C@@H](CN(C)S(=O)(=O)N(C)C)O3 [Example 210] |  | 5 nM |
| O=C(NCCO)c1c(O)c2ncc(Cc3ccc(F)cc3)c3c2n(c1=O)CCO3 [compound 12] | 3.2 nM |  |
| O=C(NCCN1CCOCC1)c1c(O)c2ncc(Cc3ccc(F)cc3)c3c2n(c1=O)CCO3 [compound 13] | 7 nM |  |
| O=C(NCCN1CCNC1=O)c1c(O)c2ncc(Cc3ccc(F)cc3)c3c2n(c1=O)CCO3 [compound 14] | 5.5 nM |  |
| O=C(NCCN(CCO)CCO)c1c(O)c2ncc(Cc3ccc(F)cc3)c3c2n(c1=O)CCO3 [compound 15] | 13 nM |  |
| CC(C)N1CCN(CCNC(=O)c2c(O)c3ncc(Cc4ccc(F)cc4)c4c3n(c2=O)CCO4)CC1 [compound 16] | 12 nM |  |
| O=C(NCCN1CCNCC1)c1c(O)c2ncc(Cc3ccc(F)cc3)c3c2n(c1=O)CCO3 [compound 18] | 20 nM |  |
| O=C(NCCO)c1c(O)c2ncc(Cc3ccc(F)cc3)c3c2n(c1=O)CCCO3 [compound 24] | 4.6 nM |  |
| O=C(NCCO)c1c(O)c2ncc(Cc3ccc(F)cc3)c3c2n(c1=O)CCN3 [compound 30] | 7 nM |  |
| O=C(NCCOCc1ccccc1)c1c(O)c2ncc(Cc3ccc(F)cc3)c3c2n(c1=O)CCN3 [compound 32] | 6 nM |  |

| Structure (SMILES) | EC50 [1] | EC50 (read-out: EC50 in MT-2 cells (nM)) |
| --- | --- | --- |
| COCCNC(=O)c1c(O)c2ncc(Cc3ccc(F)cc3)c3c2n(c1=O)CCN3 [compound 33] | 3.3 nM |  |
| O=C(NCCCN1CCCC1=O)c1c(O)c2ncc(Cc3ccc(F)cc3)c3c2n(c1=O)CCN3 [compound 34] | 9.5 nM |  |
| O=C(NCCN1CCOCC1)c1c(O)c2ncc(Cc3ccc(F)cc3)c3c2n(c1=O)CCN3 [compound 35] | 5.5 nM |  |
| O=C(NC1CC1)c1c(O)c2ncc(Cc3ccc(F)cc3)c3c2n(c1=O)CCN3 [compound 36] | 3.5 nM |  |
| CNC(=O)c1c(O)c2ncc(Cc3ccc(F)cc3)c3c2n(c1=O)CCN3 [compound 37] | 5.8 nM |  |
| CCOCCNC(=O)c1c(O)c2ncc(Cc3ccc(F)cc3)c3c2n(c1=O)CCN3 [compound 38] | 8.5 nM |  |
| CC(C)(O)CNC(=O)c1c(O)c2ncc(Cc3ccc(F)cc3)c3c2n(c1=O)CCN3 [compound 39] | 9.5 nM |  |
| CC(=O)N1CCn2c(=O)c(C(=O)NCCO)c(O)c3ncc(Cc4ccc(F)cc4)c1c32 [compound 43] | 982 nM |  |
| CN1CCn2c(=O)c(C(=O)NCCO)c(O)c3ncc(Cc4ccc(F)cc4)c1c32 [compound 45] | 2 nM |  |
| O=C(NC1CC1)c1c(O)c2ncc(Cc3ccc(F)cc3)c3c2n(c1=O)CCCN3 [compound 50] | 17 nM |  |
| C[C@@H](CO)NC(=O)c1c(O)c2ncc(Cc3ccc(F)cc3)c3c2n(c1=O)CCCN3 [compound 51] | 4 nM |  |
| COCCNC(=O)c1c(O)c2ncc(Cc3ccc(F)cc3)c3c2n(c1=O)CCCN3 [compound 52] | 8 nM |  |
| CC1(C)Cn2c(=O)c(C(=O)NCCO)c(O)c3ncc(Cc4ccc(F)cc4)c1c32 [compound 59] | 85 nM |  |
| CC1(C)Cn2c(=O)c(C(=O)NCCN3CCOCC3)c(O)c3ncc(Cc4ccc(F)cc4)c1c32 [compound 60] | 400 nM |  |
| O=C(NCCO)c1c(O)c2ncc(Cc3ccc(F)cc3)c3c2n(c1=O)CCC3 [compound 65] | 1.5 nM |  |
| Cc1cn2c(=O)c(C(=O)NCCO)c(O)c3ncc(Cc4ccc(F)cc4)c1c32 [compound 72] | 20 nM |  |
| O=C(NCCO)c1c(O)c2ncc(Cc3ccc(F)cc3)c3c2n(c1=O)CC(F)(F)CN3 [compound 79] | 7 nM |  |
